Experimental data as given in ChEMBL document CHEMBL3045543, “Predictions and correlations of structure activity relationship of some aminoantipyrine derivatives on the basis of theoretical and experimental ground” (Med Chem Res, 2012).
In brackets after ≈: the same amount, converted by molar mass. Values belong to the compound of their own block, whether it stands above or below them.

Experiments:
Staphylococcus aureus [1] = test: Antibacterial activity against Staphylococcus aureus at 100 ug/ml by agar cup-plate method; type: functional; settings: read-out: IZ
Mus musculus = organism: Mus musculus; test: Toxicity in Mus musculus (mouse) assessed as irritation; type: organism-based; settings: in vivo
Pseudomonas [2] = test: Antibacterial activity against […] at 100 ug/ml by agar cup-plate method; type: functional; settings: read-out: IZ
Pseudomonas aeruginosa [3] = test: Antibacterial activity against Pseudomonas aeruginosa at 100 ug/ml by agar cup-plate method; type: functional; settings: read-out: IZ
Escherichia coli [4] = test: Antibacterial activity against Escherichia coli at 100 ug/ml by agar cup-plate method; type: functional; settings: read-out: IZ
Pseudomonas aeruginosa [5] = test: Antibacterial activity against Pseudomonas aeruginosa after 24 hr by broth dilution method; type: functional
Escherichia coli [6] = test: Antibacterial activity against Escherichia coli after 24 hr by broth dilution method; type: functional
Pseudomonas [7] = test: Antibacterial activity against […] after 24 hr by broth dilution method; type: functional
Staphylococcus aureus [8] = test: Antibacterial activity against Staphylococcus aureus after 24 hr by broth dilution method; type: functional

SMILES: Cc1c(/N=C/c2ccc(O)cc2)c(=O)n(-c2ccccc2)n1C
- zone of inhibition at 100 µg/mL (Staphylococcus aureus [1]): 10 mm
- Activity (Mus musculus): Non-toxic
- zone of inhibition at 100 µg/mL (Pseudomonas [2]): < 5 mm
- zone of inhibition at 100 µg/mL (Pseudomonas aeruginosa [3]): 5 mm
- zone of inhibition at 100 µg/mL (Escherichia coli [4]): 5 mm

SMILES: [H]/N=C(/N)N[C@H]1[C@H](O)[C@@H](O)[C@H](O[C@@H]2O[C@@H](C)[C@](O)(C=O)[C@H]2O[C@@H]2O[C@@H](CO)[C@H](O)[C@@H](O)[C@@H]2NC)[C@@H](N/C(N)=N\[H])[C@@H]1O [STREPTOMYCIN]
- zone of inhibition at 100 µg/mL (Staphylococcus aureus [1]): > 15 mm
- Activity (Mus musculus): Non-toxic
- zone of inhibition at 100 µg/mL (Pseudomonas [2]): > 15 mm
- zone of inhibition at 100 µg/mL (Pseudomonas aeruginosa [3]): > 15 mm
- zone of inhibition at 100 µg/mL (Escherichia coli [4]): > 15 mm

SMILES: Cc1c(/N=C/c2ccccc2[N+](=O)[O-])c(=O)n(-c2ccccc2)n1C
- zone of inhibition at 100 µg/mL (Staphylococcus aureus [1]): 10 mm
- Activity (Mus musculus): Non-toxic
- zone of inhibition at 100 µg/mL (Pseudomonas [2]): < 5 mm
- zone of inhibition at 100 µg/mL (Pseudomonas aeruginosa [3]): 5 mm
- zone of inhibition at 100 µg/mL (Escherichia coli [4]): < 5 mm

- MIC (Pseudomonas aeruginosa [5]): 100 µg/mL (≈ 307 µM)
- MIC (Escherichia coli [6]): 100 µg/mL (≈ 307 µM)
- MIC (Pseudomonas [7]): 100 µg/mL (≈ 307 µM)
- MIC (Staphylococcus aureus [8]): 75 µg/mL (≈ 230 µM)
SMILES: Cc1c(/N=C/c2ccccc2Cl)c(=O)n(-c2ccccc2)n1C
- zone of inhibition at 100 µg/mL (Staphylococcus aureus [1]): > 15 mm
- Activity (Mus musculus): Non-toxic
- zone of inhibition at 100 µg/mL (Pseudomonas [2]): > 15 mm
- zone of inhibition at 100 µg/mL (Pseudomonas aeruginosa [3]): > 15 mm
- zone of inhibition at 100 µg/mL (Escherichia coli [4]): > 15 mm

SMILES: Cc1c(/N=C/c2ccccc2)c(=O)n(-c2ccccc2)n1C
- zone of inhibition at 100 µg/mL (Staphylococcus aureus [1]): > 15 mm
- Activity (Mus musculus): Non-toxic
- zone of inhibition at 100 µg/mL (Pseudomonas [2]): 10 mm
- zone of inhibition at 100 µg/mL (Pseudomonas aeruginosa [3]): < 5 mm
- zone of inhibition at 100 µg/mL (Escherichia coli [4]): < 5 mm

SMILES: Cc1c(/N=C/c2cccc([N+](=O)[O-])c2)c(=O)n(-c2ccccc2)n1C
- zone of inhibition at 100 µg/mL (Staphylococcus aureus [1]): 5 mm
- Activity (Mus musculus): Non-toxic
- zone of inhibition at 100 µg/mL (Pseudomonas [2]): < 5 mm
- zone of inhibition at 100 µg/mL (Pseudomonas aeruginosa [3]): < 5 mm
- zone of inhibition at 100 µg/mL (Escherichia coli [4]): 5 mm

- MIC (Pseudomonas aeruginosa [5]): 75 µg/mL (≈ 267 µM)
- MIC (Escherichia coli [6]): 75 µg/mL (≈ 267 µM)
- MIC (Pseudomonas [7]): 75 µg/mL (≈ 267 µM)
- MIC (Staphylococcus aureus [8]): 50 µg/mL (≈ 178 µM)
SMILES: Cc1c(/N=C/c2ccco2)c(=O)n(-c2ccccc2)n1C
- zone of inhibition at 100 µg/mL (Staphylococcus aureus [1]): > 15 mm
- Activity (Mus musculus): Non-toxic
- zone of inhibition at 100 µg/mL (Pseudomonas [2]): > 15 mm
- zone of inhibition at 100 µg/mL (Pseudomonas aeruginosa [3]): > 15 mm
- zone of inhibition at 100 µg/mL (Escherichia coli [4]): > 15 mm

SMILES: COc1ccc(/C=N/c2c(C)n(C)n(-c3ccccc3)c2=O)cc1
- zone of inhibition at 100 µg/mL (Staphylococcus aureus [1]): 5 mm
- Activity (Mus musculus): Non-toxic
- zone of inhibition at 100 µg/mL (Pseudomonas [2]): 10 mm
- zone of inhibition at 100 µg/mL (Pseudomonas aeruginosa [3]): < 5 mm
- zone of inhibition at 100 µg/mL (Escherichia coli [4]): 5 mm

SMILES: Cc1c(/N=C/c2ccc(Cl)cc2)c(=O)n(-c2ccccc2)n1C
- zone of inhibition at 100 µg/mL (Staphylococcus aureus [1]): 10 mm
- Activity (Mus musculus): Non-toxic
- zone of inhibition at 100 µg/mL (Pseudomonas [2]): < 5 mm
- zone of inhibition at 100 µg/mL (Pseudomonas aeruginosa [3]): 5 mm
- zone of inhibition at 100 µg/mL (Escherichia coli [4]): < 5 mm

SMILES: CC1(C)S[C@@H]2[C@H](NC(=O)[C@H](N)c3ccccc3)C(=O)N2[C@H]1C(=O)O [AMPICILLIN]
- zone of inhibition at 100 µg/mL (Staphylococcus aureus [1]): > 15 mm
- MIC (Pseudomonas aeruginosa [5]): 25 µg/mL (≈ 71.5 µM)
- MIC (Escherichia coli [6]): 25 µg/mL (≈ 71.5 µM)
- Activity (Mus musculus): Non-toxic
- MIC (Pseudomonas [7]): 25 µg/mL (≈ 71.5 µM)
- zone of inhibition at 100 µg/mL (Pseudomonas [2]): 10 mm
- zone of inhibition at 100 µg/mL (Pseudomonas aeruginosa [3]): > 15 mm
- zone of inhibition at 100 µg/mL (Escherichia coli [4]): 10 mm
- MIC (Staphylococcus aureus [8]): 25 µg/mL (≈ 71.5 µM)

- MIC (Pseudomonas aeruginosa [5]): 100 µg/mL (≈ 325 µM)
- MIC (Escherichia coli [6]): 75 µg/mL (≈ 244 µM)
- MIC (Pseudomonas [7]): 75 µg/mL (≈ 244 µM)
- MIC (Staphylococcus aureus [8]): 50 µg/mL (≈ 163 µM)
SMILES: Cc1c(/N=C/c2ccccc2O)c(=O)n(-c2ccccc2)n1C
- zone of inhibition at 100 µg/mL (Staphylococcus aureus [1]): > 15 mm
- Activity (Mus musculus): Non-toxic
- zone of inhibition at 100 µg/mL (Pseudomonas [2]): > 15 mm
- zone of inhibition at 100 µg/mL (Pseudomonas aeruginosa [3]): 10 mm
- zone of inhibition at 100 µg/mL (Escherichia coli [4]): > 15 mm
